Values quoted from earlier work, collected in patent publication EP3085364A1, “PHARMACEUTICAL COMBINED PREPARATION CONTAINING HMG-COA REDUCTASE INHIBITOR AND CHOLESTEROL ABSORPTION INHIBITOR” (Alvogen Korea Co., Ltd., priority 2013, dated 2015).
Read-outs that look alike come from different tables or passages of the source.

Tests used:
[1] = room temperature

solubility in organic solvents (N,N-dimethylformamide, acetone, or acetonitrile) | solubility in water | stability [1] | solubility in organic solvents (ethanol, methanol, or acetone) | SMILES
soluble | sparingly soluble | – | – | CC(C)c1nc(N(C)S(C)(=O)=O)nc(-c2ccc(F)cc2)c1/C=C/[C@@H](O)C[C@@H](O)CC(=O)O [Rosuvastatin calcium, (E)-7-[4-(4-fluorophenyl)-6-isopropyl-2-[methyl(methylsulfonyl)amino]pyrimidin-5-yl]-(3R,5S)-3,5-dihydroxyhept-6-enic acid]
– | practically insoluble | stable | freely to very soluble | O=C1[C@H](CC[C@H](O)c2ccc(F)cc2)[C@@H](c2ccc(O)cc2)N1c1ccc(F)cc1 [Ezetimibe, 1-(4-fluorophenyl)-(3R)-[3-(4-fluorophenyl)-(3S)-hydroxypropyl]-(4S)-(4-hydroxyphenyl)-2-azetidinone]
